Measured values reported in patent publication US10538555B2, “Macrocyclic inhibitors of the PD-1/PD-L1 and CD80(B7-1)/PD-L1 protein/protein interactions” (BRISTOL-MYERS SQUIBB COMPANY, priority 2014, dated 2020).
*1 amine or outer side, *2 acyl side, *3 side chain or, on linkers, in order; H or OH if unused. Where a SMILES comes first, the peptide text is derived from it. Bridges are numbered along the chain shown (N, C = ends). [ ]: non-standard residue; d: D form. ξ: configuration not given here. Trp(1-CH2COOH) = N[C@@H](Cc1cn(CC(=O)O)c2ccccc12)C(=O)O; Phe(3,4,5-F3) = N[C@@H](Cc1cc(F)c(F)c(F)c1)C(=O)O; Phe(3,4-F2) = N[C@@H](Cc1ccc(F)c(F)c1)C(=O)O; dPro(4S-Me) = C[C@@H]1CN[C@@H](C(=O)O)C1; Phe(4-F) = N[C@@H](Cc1ccc(F)cc1)C(=O)O; d(cisHyp) = O=C(O)[C@H]1C[C@@H](O)CN1; NMeY = CN[C@@H](Cc1ccc(O)cc1)C(=O)O; NMeIle(3ξ) = CCC(C)[C@H](NC)C(=O)O; Hyp = O=C(O)[C@@H]1C[C@@H](O)CN1; NMeF = CN[C@@H](Cc1ccccc1)C(=O)O; X1 = O=C([C@H]1COCCN1[*:1])[*:2]; dHyp = O=C(O)[C@H]1C[C@H](O)CN1; NMeL = CN[C@@H](CC(C)C)C(=O)O; NMehSer = CN[C@@H](CCO)C(=O)O; NMeNle = CCCC[C@H](NC)C(=O)O; dPip = O=C(O)[C@H]1CCCCN1; hSer = N[C@@H](CCO)C(=O)O; NMeA = CN[C@@H](C)C(=O)O; Orn = NCCC[C@H](N)C(=O)O; Dab = NCC[C@H](N)C(=O)O; Dap = NC[C@H](N)C(=O)O; ξP = O=C(O)C1CCCN1; Sar = CNCC(=O)O

Biological target: T1, Human PD-L1/PD-1 (Homo sapiens, UniProt Q9NZQ7)
T1 construct: TVMV protease cleavage site (C); made in house; host or cells: HEK293T cells
Assay: HTRF Human PD-L1/PD-1 binding assay (PD-1-Ig/PD-L1-His)
Conditions: PD-L1-His 10 nM, PD-1-Ig 20 nM; class symbol; read-out: HTRF Human PD-L1/PD-1 Binding Assay IC50 Range
In short: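 Competition of macrocyclic peptides for PD-1/PD-L1 binding measured by HTRF in dPBS containing 0.1% BSA and 0.05% Tween-20. Compound and PD-L1-His (10 nM final) incubated 15 min before PD-1-Ig (20 nM final) and a further 15 min.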

T1 sequence (Q9NZQ7 with tags, fused parts or gaps): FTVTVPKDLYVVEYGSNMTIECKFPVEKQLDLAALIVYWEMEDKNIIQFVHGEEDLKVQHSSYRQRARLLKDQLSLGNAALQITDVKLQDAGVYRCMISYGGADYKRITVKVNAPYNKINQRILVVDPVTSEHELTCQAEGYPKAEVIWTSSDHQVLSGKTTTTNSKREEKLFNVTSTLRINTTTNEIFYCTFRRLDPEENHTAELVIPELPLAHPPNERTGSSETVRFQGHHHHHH

IC50 [nM]	SMILES
10 to 99.9	CCCC[C@H]1C(=O)N2C[C@H](O)C[C@@H]2C(=O)N[C@@H](CC(=O)O)C(=O)N[C@@H](C(C)C)C(=O)N(C)[C@@H](Cc2ccccc2)C(=O)N[C@@H](CCC(N)=O)C(=O)N2C[C@H](O)C[C@@H]2C(=O)N[C@@H](Cc2c[nH]c3ccccc23)C(=O)N[C@@H](Cc2ccc(O)cc2)C(=O)N[C@@H](CC(=O)O)C(=O)N[C@H](C(=O)NCC(N)=O)CSCC(=O)N[C@@H](Cc2cc(F)c(F)c(F)c2)C(=O)N(C)[C@@H](Cc2ccccc2)C(=O)N1C [Example 9358] ({CH2CO}-[Phe(3,4,5-F3)][NMeF][NMeNle][d(cisHyp)]DV[NMeF]Q[d(cisHyp)]WYDCG-NH2; thioether N-13)
10 to 99.9	CCCC[C@H]1C(=O)N2CCC[C@@H]2C(=O)N[C@@H](CC(=O)O)C(=O)N[C@@H](C(C)C)C(=O)N(C)[C@@H](Cc2ccccc2)C(=O)N[C@@H](CCC(=O)O)C(=O)N2CCOC[C@@H]2C(=O)N[C@@H](Cc2c[nH]c3ccccc23)C(=O)N[C@@H](Cc2ccc(O)cc2)C(=O)N[C@@H](CCCN)C(=O)N[C@H](C(=O)NCC(N)=O)CSCC(=O)N[C@@H](Cc2cc(F)c(F)c(F)c2)C(=O)N(C)[C@@H](Cc2ccc(O)cc2)C(=O)N1C [Example 10618] ({CH2CO}-[Phe(3,4,5-F3)][NMeY][NMeNle][dP]DV[NMeF]E[X1]WY[Orn]CG-NH2; thioether N-13)
1 to 9.9	CCCC[C@H]1C(=O)N2C[C@@H](C)C[C@@H]2C(=O)N[C@@H](CC(=O)O)C(=O)N[C@@H](C(C)C)C(=O)N(C)[C@@H](Cc2ccccc2)C(=O)N[C@@H](Cc2ccc(OC)cc2)C(=O)N2C[C@@H](O)C[C@@H]2C(=O)N[C@@H](Cc2c[nH]c3ccccc23)C(=O)N[C@@H](Cc2ccc(O)cc2)C(=O)N[C@@H](CCCN)C(=O)N[C@H](C(=O)NCC(N)=O)CSCC(=O)N[C@@H](Cc2ccc(F)c(F)c2)C(=O)N(C)[C@@H](Cc2ccccc2)C(=O)N1C [Example 9229] ({CH2CO}-[Phe(3,4-F2)][NMeF][NMeNle][dPro(4S-Me)]DV[NMeF]Y(Me)[dHyp]WY[Orn]CG-NH2; thioether N-13)
1 to 9.9	CCCC[C@H]1C(=O)N(C)[C@@H](CCCC)C(=O)N[C@@H](CCC(=O)O)C(=O)N[C@H](C(=O)NCC(N)=O)CSCC(=O)N[C@@H](Cc2ccc(OC)cc2)C(=O)N(C)[C@@H](C)C(=O)N[C@@H](CC(N)=O)C(=O)N2CCC[C@H]2C(=O)N[C@@H](Cc2cnc[nH]2)C(=O)N[C@@H](CCCCN)C(=O)N2C[C@H](O)C[C@H]2C(=O)N[C@@H](Cc2c[nH]c3ccccc23)C(=O)N[C@@H](CCN)C(=O)N[C@@H](Cc2c[nH]c3ccccc23)C(=O)N1C [Example 7118] ({CH2CO}-Y(Me)[NMeA]NPHK[Hyp]W[Dab]W[NMeNle][NMeNle]ECG-NH2; thioether N-14)
1 to 9.9	CCCC[C@H]1C(=O)N(C)[C@@H](CCCC)C(=O)N[C@@H](CC(C)C)C(=O)N[C@H](C(=O)NCC(N)=O)CSCC(=O)N[C@@H](Cc2ccc(OC)cc2)C(=O)N(C)[C@@H](C)C(=O)N[C@@H](CC(N)=O)C(=O)N2CCC[C@@H]2C(=O)N[C@@H](CN)C(=O)N[C@@H](C(C)C)C(=O)N2C[C@@H](O)C[C@@H]2C(=O)N[C@@H](Cc2c[nH]c3ccccc23)C(=O)N[C@@H](CCN)C(=O)N[C@@H](Cc2cn(CC(=O)O)c3ccccc23)C(=O)N1C [Example 7151] ({CH2CO}-Y(Me)[NMeA]N[dP][Dap]V[dHyp]W[Dab][Trp(1-CH2COOH)][NMeNle][NMeNle]LCG-NH2; thioether N-14)
1 to 9.9	CCCC[C@H]1C(=O)N(C)[C@@H](CCCC)C(=O)N[C@@H](CCC(=O)O)C(=O)N[C@H](C(=O)NCC(N)=O)CSCC(=O)N[C@@H](Cc2ccc(OC)cc2)C(=O)N(C)[C@@H](C)C(=O)N[C@@H](CC(=O)O)C(=O)N2CCC[C@H]2C(=O)N[C@@H](CN)C(=O)N[C@@H](CCCCN)C(=O)N2C[C@H](O)C[C@H]2C(=O)N[C@@H](Cc2c[nH]c3ccccc23)C(=O)N[C@@H](CCN)C(=O)N[C@@H](Cc2c[nH]c3ccccc23)C(=O)N1C [Example 7122] ({CH2CO}-Y(Me)[NMeA]DP[Dap]K[Hyp]W[Dab]W[NMeNle][NMeNle]ECG-NH2; thioether N-14)
1000 to 10000	CCCC[C@H]1C(=O)N2CCC[C@@H]2C(=O)N[C@@H](CC(=O)O)C(=O)N[C@@H](C(C)C)C(=O)N(C)[C@@H](CC(C)C)C(=O)N[C@@H](CCC(N)=O)C(=O)N2CCC[C@@H]2C(=O)N[C@@H](Cc2c[nH]c3ccccc23)C(=O)N[C@@H](Cc2ccc(O)cc2)C(=O)N[C@@H](CC(C)C)C(=O)N[C@H](C(=O)NCC(N)=O)CSCC(=O)N[C@@H](Cc2ccc(F)cc2)C(=O)N(C)[C@@H](Cc2ccccc2)C(=O)N1C [Example 9253] ({CH2CO}-[Phe(4-F)][NMeF][NMeNle][dP]DV[NMeL]Q[dP]WYLCG-NH2; thioether N-13)
10 to 99.9	CCCC[C@H]1C(=O)N(C)[C@@H](CCCC)C(=O)N[C@@H](C)C(=O)N[C@H](C(=O)NCC(N)=O)CSCC(=O)N[C@@H](Cc2ccc(O)cc2)C(=O)N2CCCC[C@H]2C(=O)N[C@@H](CC(N)=O)C(=O)N2CCC[C@H]2C(=O)N[C@@H](Cc2cnc[nH]2)C(=O)N[C@@H](CCC(N)=O)C(=O)N2CCOC[C@H]2C(=O)N[C@@H](Cc2c[nH]c3ccccc23)C(=O)N[C@@H](CO)C(=O)N[C@@H](Cc2c[nH]c3ccccc23)C(=O)N1C [Example 1277]
1 to 9.9	COCC[C@H]1C(=O)N2C[C@@H](O)C[C@@H]2C(=O)N[C@@H](CC(=O)O)C(=O)N[C@@H](C(C)C)C(=O)N(C)[C@@H](Cc2ccccc2)C(=O)N[C@@H](Cc2ccc(OC)cc2)C(=O)N2C[C@@H](O)C[C@@H]2C(=O)N[C@@H](Cc2c[nH]c3ccccc23)C(=O)N[C@@H](Cc2ccc(O)cc2)C(=O)N[C@@H](CC(C)C)C(=O)N[C@H](C(=O)NCC(N)=O)CSCC(=O)N[C@@H](Cc2ccc(F)c(F)c2)C(=O)N(C)[C@@H](Cc2ccccc2)C(=O)N1C [Example 9235] ({CH2CO}-[Phe(3,4-F2)][NMeF][NMehSer](Me)[dHyp]DV[NMeF]Y(Me)[dHyp]WYLCG-NH2; thioether N-13)
1000 to 10000	CCCC[C@H]1C(=O)N2CCC[C@@H]2C(=O)N[C@@H](CC(=O)O)C(=O)N[C@@H](C(C)C)C(=O)N(C)[C@@H](C(C)CC)C(=O)N[C@@H](Cc2ccc(O)cc2)C(=O)N2CCCC[C@@H]2C(=O)N[C@@H](Cc2c[nH]c3ccccc23)C(=O)N[C@@H](Cc2ccc(O)cc2)C(=O)N[C@@H](CCCN)C(=O)N[C@H](C(=O)NCC(N)=O)CSCC(=O)N[C@@H](Cc2ccc(F)cc2)C(=O)N(C)[C@@H](Cc2ccccc2)C(=O)N1C (stereo partly drawn) [Example 9259] ({CH2CO}-[Phe(4-F)][NMeF][NMeNle][dP]DV[NMeIle(3ξ)]Y[dPip]WY[Orn]CG-NH2; thioether N-13)
10 to 99.9	CCCC[C@H]1C(=O)N2CCC[C@@H]2C(=O)N[C@@H](CC(=O)O)C(=O)N[C@@H](C(C)C)C(=O)N(C)[C@@H](Cc2ccccc2)C(=O)N[C@@H](CCC(=O)O)C(=O)N2CCOC[C@@H]2C(=O)N[C@@H](Cc2c[nH]c3ccccc23)C(=O)N[C@@H](Cc2ccc(O)cc2)C(=O)N[C@@H](CCCN)C(=O)N[C@H](C(=O)NCC(N)=O)CSCC(=O)N[C@@H](Cc2cc(F)c(F)c(F)c2)C(=O)N(C)[C@@H](Cc2ccccc2)C(=O)N1C [Example 3645] ({CH2CO}-[Phe(3,4,5-F3)][NMeF][NMeNle][dP]DV[NMeF]E[X1]WY[Orn]CG-NH2; thioether N-13)
1 to 9.9	CCCC[C@H]1C(=O)N2C[C@@H](O)C[C@@H]2C(=O)N[C@@H](CC(=O)O)C(=O)N[C@@H](C(C)C)C(=O)N(C)[C@@H](Cc2ccccc2)C(=O)N[C@@H](CCC(=O)O)C(=O)N2CCOC[C@@H]2C(=O)N[C@@H](Cc2cn(CC(=O)O)c3ccccc23)C(=O)N[C@@H](Cc2ccc(O)cc2)C(=O)N[C@@H](CCCN)C(=O)N[C@H](C(=O)NCC(N)=O)CSCC(=O)N[C@@H](Cc2cc(F)c(F)c(F)c2)C(=O)N(C)[C@@H](Cc2ccccc2)C(=O)N1C [Example 9270] ({CH2CO}-[Phe(3,4,5-F3)][NMeF][NMeNle][dHyp]DV[NMeF]E[X1][Trp(1-CH2COOH)]Y[Orn]CG-NH2; thioether N-13)
1 to 9.9	CCCC[C@H]1C(=O)N(C)[C@@H](CCCC)C(=O)N[C@@H](CCC(=O)O)C(=O)N[C@H](C(=O)NCC(N)=O)CSCC(=O)N[C@@H](Cc2ccc(O)cc2)C(=O)N(C)[C@@H](C)C(=O)N[C@@H](CC(N)=O)C(=O)N2CCCC2C(=O)N[C@@H](CO)C(=O)N[C@@H](CC(C)C)C(=O)N2C[C@H](O)C[C@H]2C(=O)N[C@@H](Cc2c[nH]c3ccccc23)C(=O)N[C@@H](CO)C(=O)N[C@@H](Cc2cn(CC(=O)O)c3ccccc23)C(=O)N1C (stereo partly drawn) [Example 6250] ({CH2CO}-Y[NMeA]N[ξP]SL[Hyp]WS[Trp(1-CH2COOH)][NMeNle][NMeNle]ECG-NH2; thioether N-14)

Same assay, conditions: PD-L1-His 10 nM, PD-1-Ig 20 nM; read-out: HTRF Human PD-L1/PD-1 Binding Assay IC50

IC50 [nM]	SMILES
8.2	CCCC[C@H]1C(=O)N2CCOC[C@@H]2C(=O)N[C@@H](CC(=O)O)C(=O)N[C@@H](C(C)C)C(=O)N(C)[C@@H](Cc2ccccc2)C(=O)N[C@@H](CCCN)C(=O)N2CCC[C@@H]2C(=O)N[C@@H](Cc2c[nH]c3ccccc23)C(=O)N[C@@H](Cc2ccc(O)cc2)C(=O)N[C@@H](CCOC)C(=O)N[C@H](C(=O)NCC(N)=O)CSCC(=O)N[C@@H](Cc2cc(F)c(F)c(F)c2)C(=O)N(C)[C@@H](Cc2ccccc2)C(=O)N1C [Example 10190] ({CH2CO}-[Phe(3,4,5-F3)][NMeF][NMeNle][X1]DV[NMeF][Orn][dP]WY[hSer](Me)CG-NH2; thioether N-13)
101	CCCC[C@H]1C(=O)N(C)[C@@H](CCCC)C(=O)N[C@@H](CC(C)C)C(=O)N[C@H](C(=O)NCC(N)=O)CSCC(=O)N[C@@H](Cc2ccc(O)cc2)C(=O)N(C)[C@@H](C)C(=O)N[C@@H](CC(N)=O)C(=O)N2CCC[C@H]2C(=O)N(C)CC(=O)N[C@@H](CCC(N)=O)C(=O)N2C[C@H](O)C[C@H]2C(=O)N[C@@H](Cc2c[nH]c3ccccc23)C(=O)N[C@@H](CO)C(=O)N[C@@H](Cc2c[nH]c3ccccc23)C(=O)N1C [Example 5262] ({CH2CO}-Y[NMeA]NP[Sar]Q[Hyp]WSW[NMeNle][NMeNle]LCG-NH2; thioether N-14)
